Values quoted from earlier work in patent US11759447B1, “Compound and method for treating diseases and disorders” (RCR BIOPHARMA, priority 2019, dated 2023).

Experiments:
[1] = oral forms such as CBD treats
dogs [2] = details: high levels of hemp-derived CBD (<0.3% THC)
dogs [3] = details: IV
dogs [4] = test system: dogs

## C=C(C)[C@@H]1CCC(C)=C[C@H]1c1c(O)cc(CCCCC)cc1O [CBD, Cannabidiol]
[1]
  fraction of orally administered CBD ultimately absorbed, on average: 5-10%
Dogs [2]
  dogs with ataxia: 2 of the 10

## CCCCCc1cc(O)c2c(c1)OC(C)(C)[C@@H]1CCC(C)=C[C@@H]21 [THC, Δ-9-tetrahydrocannabinol]
Dogs [3]
  dose causing Static Ataxia: > 0.5 mg/kg

## COc1cccc(C2(O)CCCCC2CN(C)C)c1 (stereo not shown) [tramadol, Tramadol]
Dogs [4]
  peak vertical force or vertical impulse versus placebo: no improvement
